Data as given in US20260125371A1, “METHOD FOR INHIBITING CLOSTRIDIOIDES DIFFICILE SPORE GERMINATION” (UNIVERSITY OF NOTRE DAME DU LAC, priority 2022, published 2026).
Read-outs that look alike come from different tables or passages of the source.

How the values were obtained:
S. pyogenes ATCC 49399 = assay: MIC against S. pyogenes; assay type: cell-based; conditions: Streptococcus pyogenes, ATCC49399
E. faecalis = assay: MIC against E. faecalis strains; assay type: cell-based; conditions: Enterococcus faecalis, E. faecalis 99 (Van R); read-out: MIC
K. pneumoniae ATCC700603 = assay: MIC against K. pneumoniae; assay type: cell-based; conditions: Klebsiella pneumoniae; K. pneumoniae ATCC700603; read-out: MIC
P. aeruginosa ATCC27853 = assay: MIC against P. aeruginosa; assay type: cell-based; conditions: Pseudomonas aeruginosa; P. aeruginosa ATCC27853; read-out: MIC
[1] = system: C. difficile ATCC 43255 vegetative cells; assay: Mode of action by scanning electron microscopy (SEM); conditions: 8× MIC for 24 h
C. difficile strains = conditions: cited from earlier work
[2] = system: Clostridioides difficile infection; conditions: CDI patients; cited from earlier work
[3] = C. difficile strains of Table 4

O=[N+]([O-])c1cnc(-c2nc(-c3ccc(OC4CCCC4)cc3)no2)[nH]1 [Compound 57, 3-(4-(Cyclopentyloxy)phenyl)-5-(4-nitro-1H-imidazol-2-yl)-1,2,4-oxadiazole]
damage to the cell wall: effect on vegetative cells by SEM [1]
> 128 µg/mL: MIC (S. pyogenes ATCC 49399) | MIC (K. pneumoniae ATCC700603) | MIC (P. aeruginosa ATCC27853)
128 µg/mL: MIC (E. faecalis)

CCc1c(Cl)c(O)c(Cl)c(O)c1C(=O)O[C@H]1[C@H](O)[C@H](OC)[C@H](OC/C2=C\C=C\C[C@H](O)/C(C)=C/[C@H](CC)[C@@H](O[C@@H]3OC(C)(C)[C@@H](OC(=O)C(C)C)[C@H](O)[C@@H]3O)/C(C)=C/C(C)=C/C[C@@H]([C@@H](C)O)OC2=O)O[C@@H]1C [FDX, fidaxomicin]
>8 µg/mL: MIC (C. difficile strains; C. difficile 23828, resistant to FDX) | MIC (C. difficile strains; strain RMA23828) | MIC (C. difficile strains; strain RMA27081)
4 µg/mL: MIC (C. difficile strains; C. difficile 26675, resistant to MTZ) | MIC (C. difficile strains; strain RMA23691) | MIC (C. difficile strains; strain RMA26675)
0.015 µg/mL: MIC (C. difficile strains; strain BAA-1812)
0.01 µg/mL: MIC (C. difficile strains; C. difficile 24531, resistant to VAN) | MIC (C. difficile strains; C. difficile NR49294) | MIC (C. difficile strains; C. difficile NR49305) | MIC (C. difficile strains; strain ATCC43598) | MIC (C. difficile strains; strain NR49294) | MIC (C. difficile strains; strain NR49305) | MIC (C. difficile strains; strain RMA24531) | MIC (C. difficile strains; strain RMA27173)
0.125 µg/mL: MIC (C. difficile strains; C. difficile NR49318) | MIC (C. difficile strains; strain BAA-1801) | MIC (C. difficile strains; strain BAA-1804) | MIC (C. difficile strains; strain HM-745) | MIC (C. difficile strains; strain NR49318) | MIC (C. difficile strains; strain NR-13431) | MIC (C. difficile strains; strain NR-13433) | MIC (C. difficile strains; strain NR-13436) | MIC (C. difficile strains; strain NR-32883) | MIC (C. difficile strains; strain NR-32887) | MIC (C. difficile strains; strain NR-49280) | MIC (C. difficile strains; strain NR-49298) | MIC (C. difficile strains; strain NR-49299) | MIC (C. difficile strains; strain NR-49308) | MIC (C. difficile strains; strain NR-49312) | MIC (C. difficile strains; strain NR-49316) | MIC (C. difficile strains; strain NR-49319) | MIC (C. difficile strains; strain NR-49320) | MIC (C. difficile strains; strain NR-49321)
1 µg/mL: MIC (C. difficile strains; C. difficile BAA-1803) | MIC (C. difficile strains; strain BAA-1803)
0.03 µg/mL: MIC (C. difficile strains; C. difficile NR49302) | MIC (C. difficile strains; strain BAA-1814) | MIC (C. difficile strains; strain HM-88) | MIC (C. difficile strains; strain HM-89) | MIC (C. difficile strains; strain NR49302) | MIC (C. difficile strains; strain NR-13427) | MIC (C. difficile strains; strain NR-32884) | MIC (C. difficile strains; strain NR-32886) | MIC (C. difficile strains; strain NR-32888) | MIC (C. difficile strains; strain NR-32891) | MIC (C. difficile strains; strain NR-32892) | MIC (C. difficile strains; strain NR-32895) | MIC (C. difficile strains; strain NR-32896) | MIC (C. difficile strains; strain NR-32897) | MIC (C. difficile strains; strain NR-32900) | MIC (C. difficile strains; strain NR-32903) | MIC (C. difficile strains; strain NR-32904) | MIC (C. difficile strains; strain NR-49283) | MIC (C. difficile strains; strain NR-49289) | MIC (C. difficile strains; strain NR-49300) | MIC (C. difficile strains; strain NR-49301) | MIC (C. difficile strains; strain NR-49303) | MIC (C. difficile strains; strain NR-49306) | MIC (C. difficile strains; strain NR-49307) | MIC (C. difficile strains; strain NR-49309) | MIC (C. difficile strains; strain NR-49311) | MIC (C. difficile strains; strain NR-49313) | MIC (C. difficile strains; strain NR-49325) | MIC (C. difficile strains; strain NR-49326) | MIC (C. difficile strains; strain NR-49327) | MIC (C. difficile strains; strain NR-49328) | MIC (C. difficile strains; strain NR-49329)
0.06 µg/mL: IMIC50 (101 strains) (C. difficile strains; 101 C. difficile strains) | MIC50 (C. difficile strains; [3]) | MIC (C. difficile strains; strain HM-747) | MIC (C. difficile strains; strain NR-13434) | MIC (C. difficile strains; strain NR-13438) | MIC (C. difficile strains; strain NR-32882) | MIC (C. difficile strains; strain NR-32890) | MIC (C. difficile strains; strain NR-49277) | MIC (C. difficile strains; strain NR-49282) | MIC (C. difficile strains; strain NR-49284) | MIC (C. difficile strains; strain NR-49285) | MIC (C. difficile strains; strain NR-49290) | MIC (C. difficile strains; strain NR-49304) | MIC (C. difficile strains; strain NR-49315) | MIC (C. difficile strains; strain NR-49317) | MIC (C. difficile strains; strain NR-49324) | MIC (C. difficile strains; strain RMA24923)
0.0125 µg/mL: MIC (C. difficile strains; strain NR-49297)
15%: recurrence of infection [2]
0.25 µg/mL: MIC90 (101 strains) (C. difficile strains; 101 C. difficile strains) | MIC (C. difficile strains; C. difficile BAA-1870) | MIC90 (C. difficile strains; [3]) | MIC (C. difficile strains; strain BAA-1870) | MIC (C. difficile strains; strain NR-13429) | MIC (C. difficile strains; strain NR-13437) | MIC (C. difficile strains; strain NR-32885) | MIC (C. difficile strains; strain NR-32889) | MIC (C. difficile strains; strain NR-49278) | MIC (C. difficile strains; strain NR-49279) | MIC (C. difficile strains; strain NR-49281) | MIC (C. difficile strains; strain NR-49286) | MIC (C. difficile strains; strain NR-49287) | MIC (C. difficile strains; strain NR-49288) | MIC (C. difficile strains; strain NR-49291) | MIC (C. difficile strains; strain NR-49314)
> 128 µg/mL: MIC (K. pneumoniae ATCC700603) | MIC (P. aeruginosa ATCC27853)
0.5 µg/mL: MIC (C. difficile strains; C. difficile NR49292) | MIC (C. difficile strains; strain NR49292)
≤0.01 µg/mL: MIC (C. difficile strains; C. difficile NR49310) | MIC (C. difficile strains; strain NR49310)
≤0.03 µg/mL: MIC (C. difficile strains; strain HM-746) | MIC (C. difficile strains; strain NR-13428) | MIC (C. difficile strains; strain NR-13430) | MIC (C. difficile strains; strain NR-13435) | MIC (C. difficile strains; strain NR-13553) | MIC (C. difficile strains; strain NR-49293) | MIC (C. difficile strains; strain NR-49295) | MIC (C. difficile strains; strain NR-49296) | MIC (C. difficile strains; strain NR-49323)
